Laboratory results: US9062041B2 (Bayer Intellectual Property GmbH, priority 2011, dated 2015)

Assays:
Type in all cases: cell-based
[1] = biological target: EP4 subtype of the human PGE2 receptor (Homo sapiens, UniProt P35408); experiment: cAMP antagonism test on the human EP4 receptor (HTRF cAMP detection); settings: selectivity towards hEP4, IC50 measured by cAMP antagonism test
Outline: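 Competitive HTRF cAMP read-out (cAMP-d2 vs Eu-cryptate anti-cAMP antibody, 665/620 nm ratio) on lysed human EP4 cells. Compound (0.8 nM–16.5 μM) applied 20 min at RT before 60 min PGE2 challenge (3× solution 0.3 nM, IBMX present); 20 min lysis precedes reading.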

[2] = biological target: T1, human PGD receptor (Homo sapiens, UniProt Q13258); experiment: cAMP antagonism test on the human prostaglandin D receptor (HTRF cAMP detection); settings: selectivity towards hDP, IC50 measured by cAMP antagonism test
T1 sequence (Q13258 1-359): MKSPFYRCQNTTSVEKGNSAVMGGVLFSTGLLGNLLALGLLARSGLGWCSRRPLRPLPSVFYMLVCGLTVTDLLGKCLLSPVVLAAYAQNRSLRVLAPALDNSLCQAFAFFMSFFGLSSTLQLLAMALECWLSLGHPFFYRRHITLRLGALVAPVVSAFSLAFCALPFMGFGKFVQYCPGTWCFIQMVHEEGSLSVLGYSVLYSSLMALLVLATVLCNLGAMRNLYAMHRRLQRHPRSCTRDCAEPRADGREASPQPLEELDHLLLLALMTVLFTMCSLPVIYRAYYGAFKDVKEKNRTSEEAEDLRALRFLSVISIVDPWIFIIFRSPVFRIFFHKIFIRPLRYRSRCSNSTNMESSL
Outline: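 HTRF competition read-out (665/620 nm ratio ×10000), where higher FRET means less cAMP, i.e. antagonism. Compounds (0.8 nM–16.5 μM) were preincubated 20 min at RT with cells and cAMP-d2, PGD2 (3× solution, 6 nM) in IBMX-containing PBS added for 30 min at RT, then cells lysed 20 min.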

[3] = biological target: EP2 subtype of the human PGE2 receptor (Homo sapiens, UniProt P43116); experiment: cAMP antagonism test on the human EP2 receptor (HTRF cAMP detection); settings: hEP2 receptor, read-out: Antagonism hEP2 IC50
Chain of EP2 subtype of the human PGE2 receptor (P43116 whole entry): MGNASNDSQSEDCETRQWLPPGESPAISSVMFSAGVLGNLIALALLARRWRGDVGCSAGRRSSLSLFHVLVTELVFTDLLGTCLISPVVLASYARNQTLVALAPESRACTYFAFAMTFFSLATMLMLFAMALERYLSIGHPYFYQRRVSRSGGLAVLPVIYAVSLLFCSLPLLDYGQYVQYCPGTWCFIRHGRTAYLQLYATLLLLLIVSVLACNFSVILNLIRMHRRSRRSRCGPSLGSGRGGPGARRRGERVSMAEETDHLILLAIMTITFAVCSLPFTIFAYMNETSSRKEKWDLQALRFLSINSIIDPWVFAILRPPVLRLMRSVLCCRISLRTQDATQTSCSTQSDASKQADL
Outline: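 Read-out is a competitive HTRF for cAMP: lysate cAMP displaces cAMP-d2 from Eu cryptate-labelled antibody, and antagonism raises the 665/620 nm ratio. Compound (0.8 nM–16.5 μM) added to EP2 cells 20 min at RT before 60 min PGE2 challenge (3× stock 1.5 nM) with IBMX, followed by 20 min lysis.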

Chain of EP4 subtype of the human PGE2 receptor (P35408 whole entry): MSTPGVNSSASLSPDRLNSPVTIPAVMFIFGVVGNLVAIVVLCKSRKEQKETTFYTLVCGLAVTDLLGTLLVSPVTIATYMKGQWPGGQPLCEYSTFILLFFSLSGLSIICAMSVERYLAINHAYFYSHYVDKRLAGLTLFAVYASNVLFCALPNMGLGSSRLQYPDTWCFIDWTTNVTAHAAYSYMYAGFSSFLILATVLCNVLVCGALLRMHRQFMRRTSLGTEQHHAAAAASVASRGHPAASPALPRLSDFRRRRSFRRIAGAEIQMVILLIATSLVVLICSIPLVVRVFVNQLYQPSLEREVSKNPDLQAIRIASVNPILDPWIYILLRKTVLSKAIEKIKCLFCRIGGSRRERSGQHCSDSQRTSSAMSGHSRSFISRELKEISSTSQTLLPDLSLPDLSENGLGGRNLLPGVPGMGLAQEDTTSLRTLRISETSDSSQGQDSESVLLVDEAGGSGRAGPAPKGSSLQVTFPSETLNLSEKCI

Selectivity hEP2/hEP4 [1] | Selectivity hEP2/hDP [2] | IC50 [3] | SMILES
xxx (xxx > 100) | xxx (xxx > 100) | 5.48 nM | COCCNC(=O)c1ccc2nn(CC3CCN(C(=O)c4ccc(-c5ccc(C)c(C)c5)cc4F)CC3)cc2c1C [Example 363, 2-({1-[(3-fluoro-3′,4′-dimethylbiphenyl-4-yl)carbonyl]piperidin-4-yl}methyl)-N-(2-methoxyethyl)-4-methyl-2H-indazol-5-carboxamide]
xxx (xxx > 100) | xxx (xxx > 100) | 6.61 nM | COCCNC(=O)c1ccc2nn(CC3CCN(C(=O)c4ccc(-c5ccc(OC)cc5F)cc4F)CC3)cc2c1C [Example 364, 2-({1-[(2′,3-difluoro-4′-methoxybiphenyl-4-yl)carbonyl]piperidin-4-yl}methyl)-N-(2-methoxyethyl)-4-methyl-2H-indazol-5-carboxamide]
xxx (xxx > 100) | xxx (xxx > 100) | 5.3 nM | COCCNC(=O)c1ccc2nn(CC3CCN(C(=O)c4ccc(OC(F)F)cc4)CC3)cc2c1C [Example 365, 2-({1-[4-(difluoromethoxy)benzoyl]piperidin-4-yl}methyl)-N-(2-methoxyethyl)-4-methyl-2H-indazol-5-carboxamide]
xxx (xxx > 100) | xxx (xxx > 100) | 18.9 nM | COCCNC(=O)c1ccc2nn(CC3CCN(C(=O)c4ccc(Oc5ccccc5F)cc4)CC3)cc2c1C [Example 366, 2-({1-[4-(2-fluorophenoxy)benzoyl]piperidin-4-yl}methyl)-N-(2-methoxyethyl)-4-methyl-2H-indazol-5-carboxamide]
xxx (xxx > 100) | xxx (xxx > 100) | 5.84 nM | COCCNC(=O)c1ccc2nn(CC3CCN(C(=O)c4ccc(-c5ccc(C#N)cc5C)cc4)CC3)cc2c1C [Example 367, 2-({1-[(4′-cyano-2′-methylbiphenyl-4-yl)carbonyl]piperidin-4-yl}methyl)-N-(2-methoxyethyl)-4-methyl-2H-indazol-5-carboxamide]
xxx (xxx > 100) | xxx (xxx > 100) | 12 nM | COCCNC(=O)c1ccc2nn(CC3CCN(C(=O)c4ccc(-c5ccc(Cl)cn5)cc4)CC3)cc2c1C [Example 368, 2-({1-[4-(5-chloropyridin-2-yl)benzoyl]piperidin-4-yl}methyl)-N-(2-methoxy-ethyl)-4-methyl-2H-indazol-5-carboxamide]
xxx (xxx > 100) | xxx (xxx > 100) | 5.66 nM | COCCNC(=O)c1ccc2nn(CC3CCN(C(=O)c4ccc(-c5cccc(C(F)(F)F)n5)cc4)CC3)cc2c1C [Example 369, N-(2-methoxyethyl)-4-methyl-2-[(1-{4-[6-(trifluoromethyl)pyridin-2-yl]-benzoyl}piperidin-4-yl)methyl]-2H-indazol-5-carboxamide]
xxx (xxx > 100) | xxx (xxx > 100) | 3.07 nM | COCCNC(=O)c1ccc2nn(CC3CCN(C(=O)c4ccc(-c5ccc(OC)cc5C)cc4)CC3)cc2c1C [Example 370, N-(2-methoxyethyl)-2-({1-[(4′-methoxy-2′-methylbiphenyl-4-yl)carbonyl]-piperidin-4-yl}methyl)-4-methyl-2H-indazol-5-carboxamide]
xxx (xxx > 100) | xxx (xxx > 100) | 6.11 nM | COCCNC(=O)c1ccc2nn(CC3CCN(C(=O)c4ccc(-c5ccc(Cl)cc5C)cc4)CC3)cc2c1C [Example 371, 2-({1-[(4′-chloro-2′-methylbiphenyl-4-yl)carbonyl]piperidin-4-yl}methyl)-N-(2-methoxyethyl)-4-methyl-2H-indazol-5-carboxamide]
